US20150190369A1, “QUERCETIN-3-GLUCOSIDE AND USES THEREOF” (priority 2012, published 2015)

Tests used:
PCSK9 gene = settings: cited from earlier work
[1] = system: hepatocyte nuclear factor 1α (HNF-1α); settings: cited from earlier work
PCSK9 = experiment: ELISA for secreted PCSK9 in conditioned media of Huh7 cells; assay type: cell-based, human; settings: Huh7, at the concentrations used for Q3G
Protocol: Media were collected and PCSK9 levels therein were determined by ELISA.
At passage, Huh7 cells were routinely seeded at sub-confluence (˜10^6 cells/10-cm dish) in Dulbecco's modified Eagle's medium (DMEM) containing 10% fetal bovine serum (FBS) or LPDS (for experiments) and 50 μg/ml gentamycin. They were incubated overnight at 37° C., in a humidified 5% CO2-95% air atmosphere. Cells were treated or not with Q3G at defined concentrations and for defined lengths of time. Media were collected and centrifuged at 200 g for 5 min to sediment suspended cells; supernatants were collected and supplemented with 0.33 volumes of a 3×-concentrated PIC. Cell monolayers were rinsed with ice-cold phosphate-buffered saline (PBS); they were overlaid with 0.5 of the RIPA lysis buffer (50 mM Tris-HCl, pH 8, 150 mM NaCl, 1% NP-40, 0.5% Na-deoxycholate and 0.1% SDS) supplemented with 1× PIC. After 20 min in an ice bath, the lysates were centrifuged at 14,000 g and 4° C. for 20 min, and supernatants were collected. Conditioned media and lysates were stored at −20° C. until analysis.
The assays for PCSK9 and insulin were conducted as prescribed by kit manufacturers, using a Thermo Scientific plate reader. For example, PCSK9 levels in conditioned media were measured using the human PCSK9 ELISA kit from Circulex, as specified the manufacturer. The assay was a sandwich immunoassay using two antibodies (A and B) recognizing different PCSK9 epitopes. Briefly, aliquot of diluted media were overlaid on wells coated with anti-PCSK9 antibody A. After 1-h incubation, the wells were washed, overlaid with a solution of HRP-conjugated anti-PCSK9 antibody B, and incubated for 1 h. They were washed again, and overlaid with a solution of tetra-methylbenzidine as a chromogenic substrate for HRP. After 15 min, the reaction was stopped with ammonium sulfate and the absorbance of the reaction mixtures measured by spectrophotometry at 450 nm. All the steps were performed at room temperature. Standards consisted of recombinant human PCSK9.

LDLR [2] = experiment: Semi-quantitative immunoblotting for LDLR protein in Huh7 cell lysates; assay type: cell-based, human; settings: Huh7, at the concentrations of Q3G discussed
Protocol: At passage, Huh7 cells were routinely seeded at sub-confluence (˜10^6 cells/10-cm dish) in Dulbecco's modified Eagle's medium (DMEM) containing 10% fetal bovine serum (FBS) or LPDS (for experiments) and 50 μg/ml gentamycin. They were incubated overnight at 37° C., in a humidified 5% CO2-95% air atmosphere. Cells were treated or not with Q3G at defined concentrations and for defined lengths of time. Media were collected and centrifuged at 200 g for 5 min to sediment suspended cells; supernatants were collected and supplemented with 0.33 volumes of a 3×-concentrated PIC. Cell monolayers were rinsed with ice-cold phosphate-buffered saline (PBS); they were overlaid with […] the RIPA lysis buffer (50 mM Tris-HCl, pH 8, 150 mM NaCl, 1% NP-40, 0.5% Na-deoxycholate and 0.1% SDS) supplemented with 1× PIC. After 20 min in an ice bath, the lysates were centrifuged at 14,000 g and 4° C. for 20 min, and supernatants were collected. Conditioned media and lysates were stored at −20° C. until analysis.
Cell lysates were fractionated by SDS-PAGE and electrophoretically transferred onto a polyvinylidene fluoride membrane. The membrane was incubated with a goat antihuman LDLR, rabbit anti-PCSK9, or rabbit anti-SREBP-2 polyclonal antibody at 1:1000, 1:1500, and 1:200 dilutions, respectively, and then with a HRP-conjugated heterospecific secondary antibody against the primary Igs at a 1:2000 dilution. It was probed for HRP reaction using the Western Lightning Chemiluminescence Reagent Plus a chemiluminescence-based revelation kit. The signal was captured on X-ray film and immunoreactive bands analyzed by densitometry on a Syngene's ChemiGenius^2XE Bio Imaging System (Cambridge, Mass.) within the dynamic range of the instrument. The membrane was stripped and reprobed with the anti-β-actin monoclonal primary antibody at 1:20,000 dilution and HRP-conjugated rabbit anti-mouse IgG secondary antibody at a 1:5000 dilution. The densitometric values of β-actin bands were using for normalization of experimental samples.
Huh7 cells, hepatocyte derived cellular carcinoma cells, were incubated for 24 h in medium containing 10% lipoprotein-depleted serum (LPDS) and 0 to 10 μM Q3G. The level of LDLR mRNA was measured by quantitative real-time RT-PCR; that of the LDLR protein by semi-quantitative immunoblotting. Exposure to Q3G increased the intracellular content of LDLR mRNA in a concentration-dependent manner; the increase reached a 2× maximum at 2 μM (P<0.01, relative to no Q3G) (FIG. 3A). The content of the corresponding protein followed a similar pattern, but reached a 4× maximum at 4 μM (P<0.005) (FIG. 3B).
The kinetics of cellular accumulation of LDLR and PCSK9 at 2 μM Q3G was also examined: PCSK9 accumulation in the cells began after a 3-h lag; that of LDLR after 6-h lag (FIG. 6).
Statins induce expression of LDLR and PCSK9. […] We examined whether, at a 5 μM concentration of Q3G, simvastatin at 0.2 and 1 μM could further up regulate LDLR expression in Huh7 cells; and, inversely, whether the flavonol can reduce statin-stimulated PCSK9 secretion secreted by Huh7 cells.

LDLR [3] = settings: HepG2 hepatocytes, 75 μM; cited from earlier work
Apo B = settings: Caco-2 cells, 5-30 μM; cited from earlier work

Compound | PCSK9 gene transcription (PCSK9 gene) | expression of HNF-1α [1] | effect on PCSK9 secretion (PCSK9) | effect on PCSK9 secretion (PCSK9; listed as aglycone form of quercetin) | increase in LDLR level (LDLR [2]) | LDLR expression (LDLR [3]) | Apo B secretion (Apo B)
COc1ccc2cc3[n+](cc2c1OC)CCc1cc2c(cc1-3)OCO2 [Berberine] | reduces | decreased expression |  |  |  |  | 
O=c1c(O)c(-c2ccc(O)c(O)c2)oc2cc(O)cc(O)c12 [quercetin aglycone, quercetin] |  |  | not observed | failed to affect PCSK9 secretion | not observed | up-regulation | inhibit
